From paper PMC3341351, “Down-Regulation of GABAA Receptor via Promiscuity with the Vasoactive Peptide Urotensin II Receptor. Potential Involvement in Astrocyte Plasticity” (PLoS ONE, 2012)

Tests used:
Type in all cases: cell-based
[1] = test system: α2β3γ1 GABAAR co-expressed with human UT; experiment: Patch-clamp of Iso-evoked current in CHO-UT expressing α2β3γ1 GABAAR; details: hUII 10^−13 to 10^−7 M; Iso 10^−4 M, 2 s; −60 mV
Description: (§1) CHO-K1 cell lines were obtained from American Type Culture Collection (Manassas, VA, USA). The human UT stable CHO (CHO-UT) was generously provided by Dr Christophe Dubessy (Inserm, Rouen University, France) et generated by CHO electroporation with 20 µg pIRES-neo2-UT DNA and 500 µg sterile sonicated salmon sperm DNA using the EasyJect One electroporation system (Equibio, Angleur, Belgium), followed by repetitive rounds of limiting dilution of cells in G-418 (400 µg/ml) for selection. Normal or stable CHO was grown in Ham-F12 medium supplemented with 10% FBS, 1% antibiotic-antimicotic solution and 2 mM glutamine, at 37°C in a humidified incubator with an atmosphere of 5% CO2. The stable CHO-UT medium was supplemented with the antibiotic G-418 (40 µg/ml).
(§2) For transfection, cells were trypsinized (0.05%), triturated in HamF-12 containing 10% FBS media, pelleted by centrifugation, resuspended in 100 µl solution V for nucleofection by an Amaxa Nucleofector Device (Köln, Germany; set to program U-016). Experiments were performed on normal CHO or on the stable CHO-UT cells and transiently transfected with combinations of cDNA encoding α2β3γ2, α2β3γ1, α2β1γ2, α2β3γ1, α2β3, β3γ2 (4 µg of cDNA total/transfection) GABAAR subunits. Cells were seeded on 14-mm poly-L-lysine-coated glass bottom insert dishes at 5×10^5 cells in a volume of 0.5 ml/dish. […]

[2] = test system: α2β3 GABAAR co-expressed with human UT; experiment: Patch-clamp of Iso-evoked current in CHO-UT expressing α2β3 GABAAR; details: hUII 10^−13 to 10^−7 M; Iso 10^−4 M, 2 s; −60 mV
Description: as §1, §2

[3] = test system: α2β1γ1 GABAAR co-expressed with human UT; experiment: Patch-clamp of Iso-evoked current in CHO-UT expressing α2β1γ1 GABAAR; details: hUII 10^−13 to 10^−7 M; Iso 10^−4 M, 2 s; −60 mV
Description: as §1, §2

[4] = test system: α2β3γ2 GABAAR in the absence of UT; experiment: Patch-clamp of Iso-evoked current in CHO expressing α2β3γ2 GABAAR without UT; details: DMCM 10^−5 M; hUII and URP 10^−8 M; [Orn^5]-URP and palosuran 10^−6 M; Iso 10^−4 M, 2 s; n = 3–18
Description: For transfection, cells were trypsinized (0.05%), triturated in HamF-12 containing 10% FBS media, pelleted by centrifugation, resuspended in 100 µl solution V for nucleofection by an Amaxa Nucleofector Device (Köln, Germany; set to program U-016). Experiments were performed on normal CHO or on the stable CHO-UT cells and transiently transfected with combinations of cDNA encoding α2β3γ2, α2β3γ1, α2β1γ2, α2β3γ1, α2β3, β3γ2 (4 µg of cDNA total/transfection) GABAAR subunits. Cells were seeded on 14-mm poly-L-lysine-coated glass bottom insert dishes at 5×10^5 cells in a volume of 0.5 ml/dish. Cells were incubated overnight at 37°C in a humidified incubator (5% CO2) during 16 h before electrophysiological or immunocytochemical experiments.
GABAA receptor cDNA clones; α2, β1, β3, γ1 and γ2L engineered into the expression vector pCDM8 ([…], β1, γ2) or pcDNA/Amp (β3, γ1), were generously provided by Dr Wingrove (Merk Sharp and Dohme, Harlow, UK). To obtain β3 ^HA or γ2 ^HA epitope-tagged subunits, β3 or γ2 cDNA was amplified and the PCR product was subcloned using the SalI and NotI sites of pCMV-HA (Table S2) after digestion by the same restriction enzymes.
The conventional whole-cell configuration of the patch-clamp technique was used to study the GABA-gated currents in astrocytes and granule neurons, UT stably transfected CHO, CHO-UT, and CHO transiently transfected with diverse variants of UT and GABAAR subunits. After 24-h transfection, cell culture coverslips were placed in a small chamber (1.5 ml) on a stage of a right microscope DMLFSA (Leica, Heidelberg, Germany) and superfused continuously with the following bath solution containing (in mM): NaCl, 150; KCl, 2.5; HEPES, 5; CaCl2, 2; MgCl2, 1; glucose, 10 (pH 7.4 adjusted with NaOH). The patch pipettes were fabricated from 1.5 mm (outer diameter) soft glass tubes on a two-step vertical pipette puller (List-Medical, L/M-3P-A, Darmstadt, Germany). […] ATP and GTP were added to the internal solution used to fill electrode just before recording. All recordings were obtained at RT with cells voltage-clamped at −70 mV. The GABAA receptor agonist isoguvacine was prepared in the extracellular solution and was applied to cells by pneumatic pressure ejection. To prevent desenzitization, isoguvacine was more often ejected during 5 s at 2-min intervals. ATP, GTP, or guanosine 5′-O-(2-thiodiphosphate) (GDPβS) were administered through the patch pipette solution. We investigated the effect of competitive inhibition of GDP-GTP exchange by including GDPβS in the pipette solution (in addition to the normal amount of GTP). For GDPβS and the KIC, immediately following patch rupture, GABA current recordings were performed and the experiment was commenced after an equilibration period of 15 min. […]

In the case of “ETPDCFWKYCV (disulfide) [hUII, human urotensin II, synthesized by solid phase methodology]”, the “Inhibitory effect on Iso-evoked current, α2β3γ1” value [1] is reported as “less effective”, the “Inhibitory effect on Iso-evoked current, α2β3” value [2] is reported as “totally ineffective” and the “Inhibitory effect on Iso-evoked current, α2β1γ1” value [3] is reported as “less effective”. For the same sequence, the “Effect on Iso-evoked current in the absence of UT” value [4] was “failed to affect the amplitude of the current”.
